Laboratory results as given in patent publication US20250066358A1, “Inhibitors of Menin-MLL Interaction” (Bala Therapeutics, Inc., priority 2021, published 2025).

Experiments:
MOLM-13 = MOLM-13 Cellular Growth Inhibition Assay (CellTiter-Glo); format: cell-based; settings: Homo sapiens, 168 h, MOLM-13 cells, 7 days of incubation
Method: (§1) HEK293 (Institute of Cytology Russian Academy of Science), MV4-11 (ATCC, CRL-9591), MOLM-13 (AcceGen, ABC-TC517S) were seeded at a density of 500 cells per well (HEK293) and 2000 cells per well (MV4-11, MOLM-13) in a 384-well clear bottom plate (Greiner Cat #781090) in 45 μl total volume of DMEM (PanEco, Cat #C420, Russia) or RPMI (PanEco, Cat #C330, Russia) with 10% FBS(HyClone Cat #SV30160.03). HEK293 were allowed to adhere overnight at 37° C., 5% CO2. 500× compounds solutions in DMSO (Sigma Cat #D2650) were prepared into Cmpnds plate (Diamond Well Plate, Axigen, Cat #P-384-120 SQ-C—S) and DMSO only control was included. 1 μl of 500× compounds (Cmpnds plate) was added to 49 μl of culture medium into Dilution plate (Diamond Well Plate, Axigen, Cat #P-384-120 SQ-C—S), mixed and then 5 μl of 10× compounds solutions were transferred to cells followed by centrifugation at 100 g for 1 min. Final DMSO concentration was 0.2%. After 3 days of incubation, 10 μl of 1× compounds were added to cells. After 7 days of incubation, 12 μl of CellTiter-Glo (Promega, CAT #G7572) were added to the cells, plate was centrifuged at 100 g for 1 min and luminescence signal was measured using Microplate Reader (CLARIOStar).

[1] = HEK293 Cellular Growth Inhibition Assay (CellTiter-Glo); format: cell-based; settings: human, HEK293 cells, 7 days of incubation
Method: as §1

MV4-11 = MV4-11 Cellular Growth Inhibition Assay (CellTiter-Glo); format: cell-based; settings: Homo sapiens, 168 h, MV4-11 cells, 7 days of incubation
Method: as §1

[2] = biological target: T1, recombinant MEN1 protein and fluorescein-labeled MLL4-43 peptide (Homo sapiens, UniProt O00255); test: Primary fluorescence polarization assay of MEN1 / MLL4-43 interaction inhibition; format: binding; settings: MEN1 10 nM, MLL4-43 0.5 nM, 1 hour at room temperature
T1 construct: purchased Creativebiomart MEN1-35H
T1 sequence (O00255 1-610): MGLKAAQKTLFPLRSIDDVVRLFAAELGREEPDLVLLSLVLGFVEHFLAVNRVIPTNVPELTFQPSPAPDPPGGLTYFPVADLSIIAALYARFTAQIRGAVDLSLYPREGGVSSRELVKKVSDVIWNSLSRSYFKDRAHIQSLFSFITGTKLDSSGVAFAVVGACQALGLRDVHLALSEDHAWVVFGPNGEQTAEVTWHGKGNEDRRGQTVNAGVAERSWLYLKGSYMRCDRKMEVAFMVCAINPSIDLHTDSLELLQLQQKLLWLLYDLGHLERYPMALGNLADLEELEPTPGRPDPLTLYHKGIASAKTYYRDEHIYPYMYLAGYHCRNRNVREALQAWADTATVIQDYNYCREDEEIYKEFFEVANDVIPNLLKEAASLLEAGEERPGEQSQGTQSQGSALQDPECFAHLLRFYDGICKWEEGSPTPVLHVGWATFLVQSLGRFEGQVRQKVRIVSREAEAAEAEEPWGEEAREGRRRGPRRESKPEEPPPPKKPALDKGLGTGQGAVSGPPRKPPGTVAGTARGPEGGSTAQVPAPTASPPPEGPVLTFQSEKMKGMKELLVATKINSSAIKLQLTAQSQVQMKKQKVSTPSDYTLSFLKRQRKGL
Method: Compound activity was determined using recombinant MEN1 protein (Creativebiomart, Cat #MEN1-35H) and a custom fluorescein-labeled MLL4-43 peptide (Eton Bioscience Inc.). Interaction between MEN1 and MLL4-43 in the presence of compounds was determined by fluorescence polarization assay using a Microplate Reader ClarioStar Plus. The reaction was carried out in assay buffer (50 mM TRIS-HCl PH 7.4-7.6, 50 mM NaCl, 1 mM DTT, 0.1 mg/ml BSA). The compounds were dispensed on a 384 well Diamond Well Plate (Axigen, Cat #P-384-120 SQ-C—S) using the Biomek FX liquid handling system at 100× solutions of compounds in DMSO. 2× MEN1 mix (final concentration of MEN1 10 nM) was prepared in Assay buffer and 10 μl of mixture per well was added into 384w white Reaction plate with NBS(Corning, Cat #4513). 10 μl of Assay buffer w/o MENI was used for negative control. Plates were centrifuged for 1 min at 100 g. Next step the Compounds were added to Reaction plate using Biomek station via following steps: 3 μl of 100× compounds (in DMSO) were mixed thoroughly with 27 μl Assay Buffer, then 2 μl of this mixture was added to Reaction plate with 10 μl of MENI mix. Plates were centrifuged for 1 min at 100 g and incubated for 20 min at room temperature. Next 8 μL of MLL4-43 peptide per well was added to final concentration of MLL 0.5 nM. Plates were incubated for 1 hour at room temperature. Then fluorescence polarization was measured using Microplate Reader.

Row | SMILES | EC50 [2] [µM] | CC50 (MOLM-13) [µM] | CC50 at 7 days [1] [µM] | CC50 (MV4-11) [µM]
1 | CCS(=O)(=O)Nc1ccc(CN2CCC(Nc3ncnc4ccc(CC(F)(F)F)cc34)CC2)cc1 [Compound 36, N-(4-((4-((6-(2,2,2-trifluoroethyl)quinazolin-4-yl)amino)piperidin-1-yl)methyl)phenyl)ethanesulfonamide] | 1 to 5 | 5 to 10 | 15 to 30 | 5 to 10
2 | CCS(=O)(=O)Nc1ccc(CN2CCC3(CC2)CN(c2ncnc4ccc(CCc5ccncc5)cc24)C3)cc1 [Compound 49, N-(4-((2-(6-(2-(pyridin-4-yl)ethyl)quinazolin-4-yl)-2,7-diazaspiro[3.5]nonan-7-yl)methyl)phenyl)ethanesulfonamide] | 1 to 5 | 10 to 20 | 30 to 50 | 5 to 10
3 | CCS(=O)(=O)N[C@H]1CC[C@H](Cn2cc(CNc3ncnc4ccc(CC(F)(F)F)cc34)nn2)CC1 [Compound 69, N-((1R,4R)-4-((4-(((6-(2,2,2-trifluoroethyl)quinazolin-4-yl)amino)methyl)-1H-1,2,3-triazol-1-yl)methyl)cyclohexyl)ethanesulfonamide] | > 5 | 5 to 10 | 30 to 50 | > 10
4 | Nc1ccc(CN2CCC3(CC2)CN(c2ncnc4ccc(CC(F)(F)F)cc24)C3)cc1C(=O)NCCN1CCOCC1 [Compound 91, 2-amino-N-(2-morpholinoethyl)-5-((2-(6-(2,2,2-trifluoroethyl)quinazolin-4-yl)-2,7-diazaspiro[3.5]nonan-7-yl)methyl)benzamide] | 1 to 5 | 10 to 20 | 5 to 15 | 2.5 to 5
5 | CCNS(=O)(=O)c1ccc(CN2CC3(CCN(c4ncnc5ccc(CC(F)(F)F)cc45)CC3)C2)cc1 [Compound 45, N-ethyl-4-((7-(6-(2,2,2-trifluoroethyl)quinazolin-4-yl)-2,7-diazaspiro[3.5]nonan-2-yl)methyl)benzenesulfonamide] | 1 to 5 | 5 to 10 | 15 to 30 | 5 to 10
6 | CCS(=O)(=O)NC12CC(CN3CCC4(CC3)CN(c3ncnc5ccc(CC(F)(F)F)cc35)C4)(C1)C2 [Compound 74, N-(3-((2-(6-(2,2,2-trifluoroethyl)quinazolin-4-yl)-2,7-diazaspiro[3.5]nonan-7-yl)methyl)bicyclo[1.1.1]pentan-1-yl)ethanesulfonamide] | 1 to 5 | 10 to 20 | 30 to 50 | > 10
7 | CCS(=O)(=O)Nc1ccc(CN2CC3(CCN(c4ncnc5ccc(CC(F)(F)F)cc45)CC3)C2)cc1 [Compound 43, N-(4-((7-(6-(2,2,2-trifluoroethyl)quinazolin-4-yl)-2,7-diazaspiro[3.5]nonan-2-yl)methyl)phenyl)ethanesulfonamide] | 1 to 5 | 5 to 10 | 15 to 30 | 5 to 10
8 | CCS(=O)(=O)N[C@H]1CC[C@H](CN2CCC(Nc3ncnc4ccc(CC(F)(F)F)cc34)C2)CC1 (mixture of isomers) [Compound 71, N-((1R,4R)-4-(((RS)-3-((6-(2,2,2-trifluoroethyl)quinazolin-4-yl)amino)pyrrolidin-1-yl)methyl)cyclohexyl)ethanesulfonamide] | > 5 | > 20 | > 50 | > 10
9 | CCS(=O)(=O)N[C@H]1CC[C@H](CN2CCC3(CC2)CN(c2ncnc4ccc(C#Cc5ccccc5)cc24)C3)CC1 [Compound 53, N-((1R,4R)-4-((2-(6-(phenylethynyl)quinazolin-4-yl)-2,7-diazaspiro[3.5]nonan-7-yl)methyl)cyclohexyl)ethanesulfonamide] | > 5 | 5 to 10 | ≤ 5 | 2.5 to 5
10 | FC(F)(F)Cc1ccc2ncnc(N3CC4(CCN(Cc5ccc6[nH]ccc6c5)CC4)C3)c2c1 [Compound 90, 4-(7-((1H-indol-5-yl)methyl)-2,7-diazaspiro[3.5]nonan-2-yl)-6-(2,2,2-trifluoroethyl)quinazoline] | 0.5 to 1 | 5 to 10 | 5 to 15 | 2.5 to 5

Further lines, with some results ahead:

Row | EC50 [2] [µM] | SMILES | CC50 (MOLM-13) [µM] | CC50 at 7 days [1] [µM] | CC50 (MV4-11) [µM]
11 | 0.5 to 1 | CCS(=O)(=O)N[C@H]1CC[C@H](CN2CCC3(CC2)CN(c2ncnc4ccc(CCc5ccncc5)cc24)C3)CC1 [Compound 48, N-((1R,4R)-4-((2-(6-(2-(pyridin-4-yl)ethyl)quinazolin-4-yl)-2,7-diazaspiro[3.5]nonan-7-yl)methyl)cyclohexyl)ethanesulfonamide] | > 20 | 30 to 50 | > 10
12 | 0.075 to 0.5 | CCS(=O)(=O)N[C@H]1CC[C@H](CNc2ccc(CN3CCC4(CC3)CN(c3ncnc5ccc(CC(F)(F)F)cc35)C4)cc2)CC1 [Compound 79, N-((1R,4R)-4-(((4-((2-(6-(2,2,2-trifluoroethyl)quinazolin-4-yl)-2,7-diazaspiro[3.5]nonan-7-yl)methyl)phenyl)amino)methyl)cyclohexyl)ethanesulfonamide] | 1 to 5 | ≤ 5 | > 10
13 | ≤ 0.075 | FC(F)(F)Cc1ccc2ncnc(N3CC4(CCN(Cc5cccc6[nH]ccc56)CC4)C3)c2c1 [Compound 83, 4-(7-((1H-indol-4-yl)methyl)-2,7-diazaspiro[3.5]nonan-2-yl)-6-(2,2,2-trifluoroethyl)quinazoline] | 5 to 10 | 5 to 15 | 1 to 2.5
14 | 0.5 to 1 | CCS(=O)(=O)Nc1ccc(CN2CCC3(CC2)CN(c2ncnc4ccc(CCc5ccccc5)cc24)C3)cc1 [Compound 52, N-(4-((2-(6-phenethylquinazolin-4-yl)-2,7-diazaspiro[3.5]nonan-7-yl)methyl)phenyl)ethanesulfonamide] | 1 to 5 | 5 to 15 | 1 to 2.5
15 | ≤ 0.075 | CCS(=O)(=O)Nc1ccc(CN2CCC3(CC2)CN(c2ncnc4ccc(CC(F)(F)F)cc24)C3)cc1 [Compound 7, N-(4-((2-(6-(2,2,2-trifluoroethyl)quinazolin-4-yl)-2,7-diazaspiro[3.5]nonan-7-yl)methyl)phenyl)ethanesulfonamide] | 1 to 5 | 5 to 15 | 1 to 2.5
16 | 0.075 to 0.5 | CCS(=O)(=O)N[C@H]1CC[C@H](CN2CCC3(CC2)CN(c2ncnc4ncc(CC(F)(F)F)cc24)C3)CC1 [Compound 65, N-(1R,4R)-[4-[[2-[6-(2,2,2-trifluoroethyl)pyrido[2,3-d]pyrimidin-4-yl]-2,7-diazaspiro[3.5]nonan-7-yl]methyl]cyclohexyl]ethanesulfonamide] | 1 to 5 | > 50 | 1 to 2.5
